Molecules are shown by their SMILES.

For data set [1], the system named is coronary blood flow (circumflex branch of the left coronary artery), beagles. Description: Coronary dilating effect on beagles (coronary blood flow, anesthetized dog). The format is in vivo. The following applies: i.v., 10 Mg/Kg. The procedure:
Coronary dilating effects of 5-amino-N-cyano-N'-(2-nitroxyethyl)-3-pyridinecarboximidamide (Compound No. 18) of the present invention was assessed by comparison with those of N-cyano-N'-(2-nitroxyethyl)-3-pyridinecarboximidamide methanesulfonic acid (compound described in Japanese Patent Laid-Open Publication No. 163061/1991) which is thought to be a well-known compound most similar to the compound of the present invention.
A dog (body weight, 8.3 kg) was anesthetized with 30 mg/kg of pentobarbital sodium intravenously. Respiration was maintained with room air through a cuffed endotracheal tube. The drug was administered through the femoral vein, and the coronary blood flow was measured by a probe attached to the circumflex branch of the left coronary artery.

The nature of data set [2]: Acute toxicity, oral, Compound No. 18. The following applies: rat, in vivo, male SD rats (5 weeks old). The protocol: Acute toxicity of 5-amino-N-cyano-N'-(2-nitroxyethyl)-3-pyridinecarboximidamide (Compound No. 18) of the present invention on oral administration was examined with male SD rats (5 weeks old). As a result, LD50 was about 600 mg/kg.
A further data set concerns rat aorta. Description: Vasodilating effect in a rat aorta (relaxation of KCl-induced contraction). Set-up: species or system rat (male Wistar rat). The following applies: isolated rat thoracic aorta, 40 mM KCl; read-out: IC50 (concentration for inhibiting 50% of the tension induced by KCl). The protocol:
Physiological effect of the compound of the present invention was tested by the method with use of an isolated rat aorta.
Thoracic aorta was isolated from a male Wistar rat (body weight, 250-350 g) exsanguinated to death for obtaining ring preparations having a width of 3 mm. The preparations were suspended into an organ bath filled with the Krebs-Ringer solution through which a mixed gas of 95% O2 and 5% CO2 had been aerated at 37° C. A resting tension of 1 g was applied to the preparation. After the tension in the preparation was stabilized, the solution in the organ bath was exchanged with an equimolar solution containing 40 mM KC1 to increase the tension of the preparation. When the tension induced by KCl become stable, the test compound was cumulatively added to the organ bath to relax the preparation. Relaxation response was expressed as percentage inhibition of KCl-induced contraction, and the IC50 value (concentration for inhibiting 50% of the tension induced by KCl) was calculated from the average concentration-response curve by the Probit method.

The subject of data set [3] is spontaneously hypertensive rats (SHR), systolic blood pressure. The data set can be described thus: Antihypertensive effects on conscious SHR (oral), Compound Nos. 18 and 19. The format is in vivo, rat (male spontaneously hypertensive rats. The protocol:
Antihypertensive effects of- 5-amino-N-cyano-N'-(2-nitroxyethyl)-3-pyridinecarboximidamide (N-cyano-N'-(2-nitroxyethyl)-5-(3-aminopyridine)carboximidamide; Compound No. 18) and N-cyano-5-ethylamino-N'-(2-nitroxyethyl)-3-pyridinecarboximidamide (N-cyano-N'-(2-nitroxyethyl)-5-[3-(N-ethylaminopyridine)]carboximidamide; Compound No. 19) were assessed by comparison with those of the methanesulfonate salt of N-cyano-N'-(2-nitroxyethyl)-3-pyridinecarboximidamide (compound described in Japanese Patent Laid-Open Publication No. 163061/1991) as a reference compound which is thought to be a well-known compound most similar to the compound of the present invention.
Systolic blood pressure (SBP) was measured with the tail cuff method.
Each of the compound Nos. 18 and 19 was dissolved in an equivalent mixture of polyethylene glycol 200 and physiological saline, and the reference compound was dissolved in physiological saline. The compounds were administered orally with the aid of an oral probe. SBP was measured before administration and 1, 2, 4, 6, 8, 12 and 24 hours after administration of the compound. The results were expressed as the percentage change in SBP observed before administration.

For the compound `N#CNC(=NCCO[N+](=O)[O-])c1cncc(N)c1` [Compound No. 18, 5-amino-N-cyano-N'-(2-nitroxyethyl)-3-pyridinecarboximidamide], the “increase of coronary blood flow” value in data set [1] is listed as “increase of coronary blood flow was observed”. Besides, in data set [1], the “time for which the increase of coronary blood flow was retained” value was not below 15 min. Further, the “percent change of coronary blood flow as compared with the blood flow before administration” value in data set [1] (1 min after dosage) is reported as 200.0%; in data set [1] (3 min after dosage) it was 123.8%; in data set [1] (5 min after dosage), 71.4%; in data set [1] (10 min after dosage), 19.0%; in data set [1] (15 min after dosage), 19.0%; in data set [1] (20 min after dosage), 0.0%. In data set [2], this compound returned an LD50 of approximately 600 mg/kg. Besides, in the data set with rat aorta, the IC50 came out at 22 µM. The “decrease in blood pressure / antihypertensive effect” value in data set [3] (3.0 mg/kg oral) was “decrease in blood pressure was observed”. In addition, the “duration of the antihypertensive effect” value in data set [3] (3.0 mg/kg oral) is not below 12 h. Further, the “percent change in SBP observed before administration of the compound” value in data set [3] (3.0 mg/kg oral, 1 hour after administration) is -56.9%; in data set [3] (3.0 mg/kg oral, 2 hour after administration) it was -49.2%; in data set [3] (3.0 mg/kg oral, 4 hour after administration), -42.6%; in data set [3] (3.0 mg/kg oral, 6 hour after administration), -17.9%; in data set [3] (3.0 mg/kg oral, 8 hour after administration) it was -20.5%; in data set [3] (3.0 mg/kg oral, 12 hour after administration), -22.2%. For the same compound, the “percent change in SBP observed before administration of the compound” value in data set [3] (3.0 mg/kg oral, 24 hour after administration) is listed as -3.7%. In addition, the “antihypertensive activity or coronary vasodilating effect determined with the passage of time” value in data set [3] (summary statement) was “remarkably potent and sustainable”.

The values above are taken from patent publication US5508293A, “Pyridinecarboxyimidamide compounds and the use thereof” (Kirin Beer Kabushiki Kaisha, priority 1992, dated 1996).
